System: mice
Test: Loaded swimming test, exercise time to exhaustion
Assay type: in vivo
Conditions: intragastric, 1 hour prior to test
Description: Adult (8-10 weeks) male ICR mice were used in this study and purchased from Beijing Vital River Laboratory Animal Technology Co., Ltd. All the mice were provided with a normal diet and water ad libitum. All procedures were approved by institutional guidelines and the Animal Care and Use Committee (Huazhong University of Science and Technology, Wuhan, China) of the university's animal core facility. The mice were group-housed under a 12 h light-dark cycle (lights on at 8:00 a.m.), at consistent humidity (50±5%), and ambient temperature (22˜24° C.).
The animals were bred with three mice per cage in the laboratory, and were acclimatized for 1 week before the experiments. The mice were grouped randomly for each experiment. The mice in each group were given the corresponding dose amino acid and the control group was treated with the equal volume of normal saline (NS) through intragastric administration. Loaded swimming experiments were performed to assess the acute effect of the amino acids on endurance one hour after the treatment
The NS injection were purchased from Beijing Pharmaceutical Group Co., Ltd. The amino acid powders were dissolved in NS and then were intragastric administration to mice by lavage needle (Beijing Vital River Laboratory Animal Technology Co., Ltd.).
Acute effects on endurance performance were assessed by loaded swimming test one hour after the amino acid treatment. The swimming exercise was carried out in a tank (diameter 120 cm) filled with fresh water to 30-cm depth at 24±2° C. A tin wire (⅛ of body weight) was attached on the tail of the mouse. […] The length of time each mouse kept swimming before exhaustion (exercise time to exhaustion) was recorded. At the end of the session, the mice were removed from the water, dried with paper towels, and placed back in their home cages.
Sixty mice were randomly divided into four groups (n=15 per group). Each of the four group were treated with NS, citrulline (200 mg/kg body weight), GABA (150 mg/kg body weight), and citrulline/GABA mixture (200 mg/kg+150 mg/kg) respectively. The results were summarized below (Table 2 and FIG. 1).
The methods used here are the same as in Example 1, but GABA (150 mg/kg) was replaced by taurine (200 mg/kg). The results were summarized below (Table 3 and FIG. 2).
The methods used here are the same as in Example 1. Sixty mice were randomly divided into four groups (n=15 per group). Each of the four group were treated with NS, citrulline (75 mg/kg body weight), taurine (25 mg/kg body weight), and citrulline taurine mixture (75 mg/kg+25 mg/kg) respectively. The results were summarized below (Table 4 and FIG. 3).

[1] = Example 2, citrulline 200 mg/kg, taurine 200 mg/kg, mixture 200 mg/kg+200 mg/kg
[2] = Example 3, lower doses, citrulline 75 mg/kg, taurine 25 mg/kg, mixture 75 mg/kg+25 mg/kg
[3] = Example 1, citrulline 200 mg/kg, GABA 150 mg/kg, mixture 200 mg/kg+150 mg/kg, male ICR mice

NCCS(=O)(=O)O [Taurine, taurine]
Average Time (s), exercise time to exhaustion [1]: 208 s | Increase of exercise time to exhaustion vs control [1]: 23.6% | Increase of exercise time to exhaustion vs control (Example 2, citrulline 200 mg/kg, taurine 200 mg/kg, mixture 200 mg/kg+200 mg/kg, listed as taurine): 23.6% | Average Time (s), exercise time to exhaustion [2]: 181 s | Increase of exercise time to exhaustion vs control [2]: 7.5% | Increase of exercise time to exhaustion vs control (Example 3, lower doses, citrulline 75 mg/kg, taurine 25 mg/kg, mixture 75 mg/kg+25 mg/kg, listed as taurine): 7.5%

NC(=O)NCCC[C@H](N)C(=O)O [Citrulline, L-citrulline]
Average Time (s), exercise time to exhaustion [3]: 245.4 s | Average Time (s), exercise time to exhaustion (Example 1, citrulline 200 mg/kg, GABA 150 mg/kg, mixture 200 mg/kg+150 mg/kg, male ICR mice, listed as citrulline): about 245.4 s | Average Time (s), exercise time to exhaustion [1]: 194.6 s | Increase of exercise time to exhaustion vs control [1]: 15.6% | Increase of exercise time to exhaustion vs control (Example 2, citrulline 200 mg/kg, taurine 200 mg/kg, mixture 200 mg/kg+200 mg/kg, listed as citrulline): 15.6% | Average Time (s), exercise time to exhaustion [2]: 207.7 s | Increase of exercise time to exhaustion vs control [2]: 23.4% | Increase of exercise time to exhaustion vs control (Example 3, lower doses, citrulline 75 mg/kg, taurine 25 mg/kg, mixture 75 mg/kg+25 mg/kg, listed as citrulline): 23.4%

NCCCC(=O)O [GABA, gamma-aminobutyric acid, reference compound]
Average Time (s), exercise time to exhaustion [3]: 216.8 s

Source: patent US10548865B1, “Compositions of citrulline” (Hubei Grand Biotechnology Co. Ltd., priority 2019, dated 2020)
